Key:
[1] = Drug release from stent coatings, Vankel Bio-Dis release rate tester, HPLC; format: physicochemical; conditions: fluid-treated coating, Example 3
Description: The drug-coated stents were placed on stent holders of a Vankel Bio-Dis release rate tester (Vankel, Inc., Cary, N.C.). 3 stents from each test group were dipped into an artificial medium for about 1 hour to extract the 40-O-(2-hydroxy)ethyl-rapamycin from the stent coatings. The artificial medium included phosphate buffer saline solution (10 mM, pH 7.4) and 1% TRITON X-100 Sigma Corporation) which stabilizes the 40-O-(2-hydroxy)ethyl-rapamycin in the testing solution. Each stent was tested in a separate testing solution to prevent cross-contamination. After extraction, each of the solutions was separately analyzed for the amount of drug released from the stent coatings by high pressure liquid chromatography (HPLC). The HPLC system consisted of a Waters 2690 system. After the drug solutions were analyzed by HPLC, the results were quantified by comparing the release rate results with a reference standard.
Each of the stents was then dipped in fresh extraction solutions for another 6 hours (7 hours total). The solutions were analyzed by HPLC as described above. […] The solutions were again analyzed by HPLC as described above.
The drug release profile could then be generated by plotting cumulative drug released in the medium vs. time. The percentage of drug released at a specific time was determined by comparing the cumulative drug released with the total content data. […]

[2] = Release of 40-O-(2-hydroxy)ethyl-rapamycin from a standard polymeric coating in release media; format: physicochemical; conditions: in about 24 hours, certain release media

decrease of release rate as compared to a control group [1]: about 50% | release rate from a standard polymeric coating [2]: greater than 50%
SMILES: CO[C@H]1C[C@@H]2CC[C@@H](C)[C@@](O)(O2)C(=O)C(=O)N2CCCC[C@H]2C(=O)O[C@H]([C@H](C)C[C@@H]2CC[C@@H](OCCO)[C@H](OC)C2)CC(=O)[C@H](C)/C=C(\C)[C@@H](O)[C@@H](OC)C(=O)[C@H](C)C[C@H](C)/C=C/C=C/C=C/1C [40-O-(2-hydroxy)ethyl-rapamycin]

— patent US7989018B2, “Fluid treatment of a polymeric coating on an implantable medical device” (Advanced Cardiovascular Systems, Inc., priority 2001, dated 2011)
